Results taken from ChEMBL document CHEMBL1153474, “Novel tricyclic antagonists of the prostaglandin D2 receptor DP2 with efficacy in a murine model of allergic rhinitis” (Bioorg Med Chem Lett, 2009).
Active and inactive are the calls of the source. The calls are words filed in the database; no cut-off is given here.

Legend:
[1] = biological target: T1, Thromboxane A2 receptor (Homo sapiens, UniProt P21731); experiment: Displacement of [3H]SQ-29548 from thromboxane receptor in human platelet membrane; assay type: cell membranes
T1 sequence (P21731 whole entry): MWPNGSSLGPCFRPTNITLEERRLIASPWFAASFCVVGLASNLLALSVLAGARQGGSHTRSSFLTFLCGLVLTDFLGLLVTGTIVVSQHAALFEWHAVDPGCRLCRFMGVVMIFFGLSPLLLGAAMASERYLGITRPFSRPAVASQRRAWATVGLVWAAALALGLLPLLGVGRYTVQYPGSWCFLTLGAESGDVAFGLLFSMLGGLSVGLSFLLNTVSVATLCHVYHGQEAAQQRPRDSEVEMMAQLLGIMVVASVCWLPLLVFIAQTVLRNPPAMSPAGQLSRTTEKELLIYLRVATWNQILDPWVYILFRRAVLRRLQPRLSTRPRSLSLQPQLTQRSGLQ

[2] = biological target: Prostacyclin receptor (Homo sapiens, UniProt P43119); experiment: Displacement of [3H]iloprost from human prostacyclin receptor expressed in human 293 cell membrane; assay type: cell membranes
[3] = biological target: T2, Prostaglandin D2 receptor 2 (Homo sapiens, UniProt Q9Y5Y4); experiment: Displacement of [3H]PGD2 from human prostaglandin D2 receptor in presence of human serum albumin
T2 sequence (Q9Y5Y4 whole entry): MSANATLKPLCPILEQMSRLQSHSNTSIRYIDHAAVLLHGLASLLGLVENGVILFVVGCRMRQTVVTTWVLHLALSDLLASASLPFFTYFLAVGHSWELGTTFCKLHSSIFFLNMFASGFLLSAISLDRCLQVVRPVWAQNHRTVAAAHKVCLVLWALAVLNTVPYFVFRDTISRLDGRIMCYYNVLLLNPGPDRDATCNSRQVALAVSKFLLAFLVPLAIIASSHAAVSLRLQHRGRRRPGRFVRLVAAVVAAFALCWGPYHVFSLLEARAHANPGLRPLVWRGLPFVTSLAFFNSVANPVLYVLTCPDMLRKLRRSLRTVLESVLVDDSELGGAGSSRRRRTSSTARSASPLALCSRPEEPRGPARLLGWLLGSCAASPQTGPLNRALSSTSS

[4] = biological target: T3, Cytochrome P450 3A4 (Homo sapiens, UniProt P08684); experiment: Induction of CYP3A4 activity in cryopreserved human hepatocytes at 10 uM using midazolam as substrate after 2 days relative to rifampicin; details: 48 h
[5] = biological target: T2, Prostaglandin D2 receptor 2; experiment: Displacement of [3H]PGD2 from human prostaglandin D2 receptor
[6] = biological target: T4, Prostaglandin D2 receptor (Homo sapiens, UniProt Q13258); experiment: Displacement of [3H]PGD2 from […] in human platelet membrane; assay type: cell membranes
T4 sequence (Q13258 whole entry): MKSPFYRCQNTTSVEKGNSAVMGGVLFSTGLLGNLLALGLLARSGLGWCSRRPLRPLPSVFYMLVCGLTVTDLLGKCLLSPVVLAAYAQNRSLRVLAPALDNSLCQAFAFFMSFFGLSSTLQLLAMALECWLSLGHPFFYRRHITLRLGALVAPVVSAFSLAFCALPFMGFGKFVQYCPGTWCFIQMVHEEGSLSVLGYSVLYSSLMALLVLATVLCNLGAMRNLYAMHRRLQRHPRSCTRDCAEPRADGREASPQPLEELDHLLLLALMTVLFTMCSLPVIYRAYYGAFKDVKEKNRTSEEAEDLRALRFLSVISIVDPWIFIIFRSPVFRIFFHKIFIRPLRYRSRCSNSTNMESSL

[7] = biological target: Cytochrome P450 2D6 (Homo sapiens, UniProt P10635); experiment: Inhibition of human CYP2D6; assay type: ADME
[8] = biological target: Cytochrome P450 2C9 (Homo sapiens, UniProt P11712); experiment: Inhibition of human CYP2C9; assay type: ADME
[9] = system: Blood; experiment: Inhibition of eosinophil […] in human whole blood assessed as change in morphology after 4 mins using flow cytometry by leukocyte shape change assay; assay type: functional, tissue-based
[10] = biological target: T3, Cytochrome P450 3A4; experiment: Inhibition of human CYP3A4; assay type: ADME
[11] = system: Mus musculus; experiment: Reduction of ovalbumin-induced increase in sneezes in BALB/c mouse at 10 mg/kg, po once daily for 3 days administered 20 days after ip challenge with ovalbumin followed by intranasal ovalbumin challenge 1 hr post drug dose measured after 8 mins; assay type: functional, organism-based; set-up: dose 10 mg/kg
[12] = Cmin in BALB/c mouse at 10 mg/kg, po administered once daily for 3 days measured after 8 hrs; assay type: ADME, organism-based; set-up: dose 10 mg/kg, route oral; details: in vivo, read-out: Cmin
[13] = system: Mus musculus; experiment: Reduction of ovalbumin-induced increase in nasal rubs in BALB/c mouse at 10 mg/kg, po once daily for 3 days administered 20 days after ip challenge with ovalbumin followed by intranasal ovalbumin challenge 1 hr post drug dose measured after 8 mins; assay type: functional, organism-based; set-up: dose 10 mg/kg
[14] = Cmax in BALB/c mouse at 10 mg/kg, po administered once daily for 3 days measured after 1 hr; assay type: ADME, organism-based; set-up: dose 10 mg/kg, route oral; details: in vivo

Sequence of Cytochrome P450 2D6 (P10635 whole entry): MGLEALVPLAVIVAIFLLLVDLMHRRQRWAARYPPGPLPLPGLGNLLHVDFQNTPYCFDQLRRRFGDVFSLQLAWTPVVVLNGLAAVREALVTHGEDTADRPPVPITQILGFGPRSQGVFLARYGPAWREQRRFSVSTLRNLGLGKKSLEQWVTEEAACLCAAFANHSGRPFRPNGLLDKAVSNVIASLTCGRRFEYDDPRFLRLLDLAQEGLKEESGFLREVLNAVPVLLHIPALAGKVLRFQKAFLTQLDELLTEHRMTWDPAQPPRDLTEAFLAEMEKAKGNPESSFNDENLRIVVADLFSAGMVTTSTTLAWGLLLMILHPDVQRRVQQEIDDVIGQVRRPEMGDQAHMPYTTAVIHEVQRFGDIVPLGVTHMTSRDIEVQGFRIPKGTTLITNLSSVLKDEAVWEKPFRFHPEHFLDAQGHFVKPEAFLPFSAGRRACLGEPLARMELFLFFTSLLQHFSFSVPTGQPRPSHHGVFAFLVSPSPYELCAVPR
T3 sequence (P08684 whole entry): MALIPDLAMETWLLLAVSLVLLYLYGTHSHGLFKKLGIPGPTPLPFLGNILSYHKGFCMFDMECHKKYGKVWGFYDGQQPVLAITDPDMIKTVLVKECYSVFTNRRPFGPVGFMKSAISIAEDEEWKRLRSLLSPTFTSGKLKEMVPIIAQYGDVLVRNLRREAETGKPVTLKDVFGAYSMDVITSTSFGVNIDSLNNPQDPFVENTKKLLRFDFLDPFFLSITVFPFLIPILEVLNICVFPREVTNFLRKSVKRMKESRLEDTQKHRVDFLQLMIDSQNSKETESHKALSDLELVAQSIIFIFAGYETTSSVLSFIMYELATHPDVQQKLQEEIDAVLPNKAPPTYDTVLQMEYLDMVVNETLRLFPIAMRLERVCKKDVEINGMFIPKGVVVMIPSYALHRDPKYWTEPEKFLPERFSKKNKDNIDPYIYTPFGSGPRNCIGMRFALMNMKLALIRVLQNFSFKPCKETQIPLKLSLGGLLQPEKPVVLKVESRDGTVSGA
Sequence of Cytochrome P450 2C9 (P11712 whole entry): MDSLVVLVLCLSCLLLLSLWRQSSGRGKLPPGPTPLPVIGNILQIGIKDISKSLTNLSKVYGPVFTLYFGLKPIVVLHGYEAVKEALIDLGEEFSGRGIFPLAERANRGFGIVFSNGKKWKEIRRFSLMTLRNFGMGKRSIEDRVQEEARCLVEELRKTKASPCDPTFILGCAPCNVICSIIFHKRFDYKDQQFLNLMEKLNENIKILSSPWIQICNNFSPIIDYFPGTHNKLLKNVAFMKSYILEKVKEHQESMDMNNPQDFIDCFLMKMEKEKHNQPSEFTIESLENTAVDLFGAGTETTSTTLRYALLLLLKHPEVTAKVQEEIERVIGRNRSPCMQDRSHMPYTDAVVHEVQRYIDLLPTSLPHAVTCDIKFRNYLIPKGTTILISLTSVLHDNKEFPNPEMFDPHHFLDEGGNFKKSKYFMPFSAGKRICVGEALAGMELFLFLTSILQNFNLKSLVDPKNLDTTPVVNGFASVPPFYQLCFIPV
Sequence of Prostacyclin receptor (P43119 whole entry): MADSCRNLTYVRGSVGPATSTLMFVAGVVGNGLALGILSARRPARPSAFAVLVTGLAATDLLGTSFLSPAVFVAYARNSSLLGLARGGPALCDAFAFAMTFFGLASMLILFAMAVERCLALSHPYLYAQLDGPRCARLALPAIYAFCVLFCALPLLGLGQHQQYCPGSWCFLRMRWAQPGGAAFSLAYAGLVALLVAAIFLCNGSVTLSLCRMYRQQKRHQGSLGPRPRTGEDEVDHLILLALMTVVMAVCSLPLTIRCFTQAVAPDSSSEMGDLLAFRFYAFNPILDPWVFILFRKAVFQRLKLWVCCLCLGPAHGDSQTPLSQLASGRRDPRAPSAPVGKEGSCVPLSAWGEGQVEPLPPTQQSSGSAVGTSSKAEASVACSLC

Row | IC50 [1] [µM] | IC50 [2] [µM] | IC50 [3] [nM] | Activity [4] [%] | IC50 [5] [nM] | IC50 [6] [µM] | IC50 [7] [µM] | IC50 [8] [µM] | IC50 [9] [nM] | IC50 [10] [µM] | concentration at 8 h [12] [nM] | Cmax [14] [nM] | Structure (SMILES) | Activity [11] | Activity [13]
1 | 62.6 | > 100 | 744 | 0.4 | 42 | 25.6 | > 30 | > 30 | 744 |  |  |  | CN(C)c1nc(Cc2ccc(NC(=O)c3ccc(C(F)(F)F)cc3)cc2)nc(N(C)C)c1CC(=O)O [BI-671800] |  | 
2 | > 100 | > 100 | 4 | 30.8 | 1 | 2.2 | > 30 | 18 | 1 | > 30 |  |  | CN([C@@H]1CCC2=C(C1)C1C=CC=CC1N2CC(=O)O)S(=O)(=O)c1ccc(F)cc1 (stereo partly specified) |  | 
3 | > 100 | > 100 | 20 | 0.7 | 6 | 1 | > 30 | 5 | 7 | 7 |  |  | CN([C@@H]1CCc2c(CC(=O)O)c3ccccc3n2C1)S(=O)(=O)c1ccc(F)cc1 [MK-7246] |  | 
4 | > 100 | > 100 | 51000 | 0.9 | 24900 | 41.7 | > 30 | > 30 | 41600 | > 30 |  |  | CN([C@@H]1CCc2c(CC(=O)O)c3ncccc3n2C1)S(=O)(=O)c1ccc(F)cc1 |  | 
5 |  | > 100 | 61 |  | 94 | 31 | > 30 | 10 | 16 | 11 |  |  | CN([C@@H]1CCc2c(c3ccccn3c2CC(=O)O)C1)S(=O)(=O)c1ccc(F)cc1 |  | 
6 | > 100 | > 100 | 940 | 0.4 | 860 | > 100 | > 30 | > 30 | 452 | > 30 |  |  | CN([C@@H]1CCc2c(c3ccncc3n2CC(=O)O)C1)S(=O)(=O)c1ccc(F)cc1 |  | 
7 | > 100 | > 100 | 11 | 2.8 | 6 | > 100 | > 30 | > 30 | 1 | > 30 | 120 | 770 | CN([C@@H]1CCc2c(c3ncccc3n2CC(=O)O)C1)S(=O)(=O)c1ccc(F)cc1 | Active | Active
8 | > 100 | > 100 | 1340 | 2.8 | 457 | 9 | > 30 | > 30 | 3100 | > 30 |  |  | CN([C@@H]1CCc2c(c3cccnc3n2CC(=O)O)C1)S(=O)(=O)c1ccc(F)cc1 |  | 
9 | > 100 | > 100 | 46 | 0.9 | 18 | 4.4 | > 30 | 17 | 6 | > 30 |  |  | CN([C@@H]1CCc2c(CC(=O)O)c3ccccn3c2C1)S(=O)(=O)c1ccc(F)cc1 |  | 
10 | 0.014 | > 100 | 754 |  | 311 | 33.4 | > 30 | 15 | 1210 |  |  |  | O=C(O)CCn1c2c(c3ccccc31)C[C@H](NS(=O)(=O)c1ccc(F)cc1)CC2 [RAMATROBAN] |  | 
11 | > 100 | 57.9 |  | 58.8 |  | 7.3 | > 30 | > 30 | 261 |  |  |  | Cc1c(Cc2ccc3ccccc3n2)c2cc(F)ccc2n1CC(=O)O [TIMAPIPRANT] |  | 
12 | > 100 | > 100 | 127 | 0.9 | 96 | 37.8 | > 30 | 15 | 140 | > 30 |  |  | CN([C@@H]1CCc2c(c3nccnc3n2CC(=O)O)C1)S(=O)(=O)c1ccc(F)cc1 |  | 
